From patent publication US12378216B2, “Heteroaryl(heterocyclyl)methanol compounds useful in the treatment of hyperglycaemia” (ATROGI AB, priority 2019, dated 2025)
Counter-ions that a name gives are not always drawn.

Experiments:
L6-myotubes = experiment: Glucose uptake in differentiated L6-myotubes (3H-2-deoxy-glucose); format: cell-based; conditions: for Biological example 1 (glucose uptake, activity compared to that of isoproterenol): L6-myotubes, agonist final concentration 1×10^−5, relative to isoproterenol, Table 1; for Biological example 3: Table 2, the assay of Biological Example 1 (glucose uptake, L6-myotubes, agonist 1×10^−5, relative to isoproterenol)
Procedure: (§1) L6-myoblasts were grown in Dulbecco's Modified Eagle's Medium (DMEM) containing 4.5 g/I glucose supplemented with 10% fetal bovine serum, 2 mM L-Glutamine, 50 U/ml penicillin, 50 μg/ml streptomycin and 10 mM HEPES. Cells were plated at 1×10^5 cells per ml in 24-well plates. After reaching 90% confluence the cells were grown in medium containing 2% FBS for 7 days where upon cells differentiated into myotubes.
Differentiated L6-myotubes were serum-starved overnight in medium containing 0.5% fatty-acid free BSA and stimulated with agonist, final concentration 1×10^−5. After 1 h 40 min cells were washed with warm, glucose free medium or PBS and another portion of agonist was added to glucose free medium. After 20 min the cells were exposed to 50 nM ^3H-2-deoxy-glucose for another 10 min before washed in ice cold glucose free medium or PBS and lysed in 0.2 M NaOH for 1 h in 60° C.

[1] = test system: Intracellular cAMP levels; experiment: Measurement of intracellular cAMP levels in differentiated L6 cells (alpha screen cAMP kit); format: cell-based; conditions: for Biological example 2 (intracellular cAMP levels, activity compared to that of isoproterenol): differentiated cells, agonist final concentration 1×10-^5, 15 min, relative to isoproterenol, Table 1; for Biological example 4: Table 2, the assay of Biological Example 2 (intracellular cAMP, agonist 1×10-^5, relative to isoproterenol)
Procedure: as §1
Differentiated cells were serum-starved overnight and stimulated with agonist, final concentration 1×10-^5, for 15 min in stimulation buffer (HBSS supplemented with 1% BSA, 5 mM HEPES and 1 mM IBMX, pH 7.4) The medium was then aspirated and to end the reaction 100 μL of 95% EtOH was added to each well of a 24-well plate and cells were kept in −20° C. over night. The EtOH was let to evaporate and 500 μL of lysis buffer (1% BSA, 5 mM HEPES and 0.3% Tween-20, pH 7.4) was added to each well before put in −80° C. for 30 min and then kept in −20° C. Intracellular cAMP levels were detected using an alpha screen cAMP kit (6760635D from Perkin Elmer). The activity for each compound is compared to that of isoproterenol.

Row | Compound | Biological example 1 (glucose uptake, activity compared to that of isoproterenol) (L6-myotubes) | Biological example 2 (intracellular cAMP levels, activity compared to that of isoproterenol) [1] | Biological example 3 (L6-myotubes) | Biological example 4 [1]
1 | CCC[C@H]1CCC[C@H]([C@H](O)c2cncc(F)c2)N1 [Example 1, (R)-(5-Fluoropyridin-3-yl)((2R,6S)-6-propylpiperidin-2-yl)methanol dihydrochloride] | − (less than 25%) | − (less than 25%) |  | 
2 | CCC[C@H]1CCC[C@H]([C@@H](O)c2cncc(F)c2)N1 [Example 2, (S)-(5-Fluoropyridin-3-yl)((2R,6S)-6-propylpiperidin-2-yl)methanol] | − (less than 25%) | − (less than 25%) |  | 
3 | CCC[C@@H]1CC[C@H]([C@H](O)c2cncc(F)c2)N1.O=C(O)/C=C\C(=O)O [Example 3, (R)-(5-Fluoropyridin-3-yl)((2R,5R)-5-propylpyrrolidin-2-yl)methanol maleate] | +++ (more than 75% of that of isoproterenol) | − (less than 25%) |  | 
4 | CCC[C@@H]1CC[C@H]([C@@H](O)c2cncc(F)c2)N1.O=C(O)/C=C\C(=O)O [Example 4, (S)-(5-Fluoropyridin-3-yl)((2R,5R)-5-propylpyrrolidin-2-yl)methanol maleate] | ++ (between 75 and 50%) | − (less than 25%) |  | 
5 | CC1(C)CC[C@H]([C@H](O)c2cncc(F)c2)N1 [Example 5, (R)-((R)-5,5-Dimethylpyrrolidin-2-yl)(5-fluoropyridin-3-yl)methanol] | +++ (more than 75% of that of isoproterenol) | − (less than 25%) |  | 
6 | CC1(C)CC[C@H]([C@@H](O)c2cncc(F)c2)N1 [Example 6, (S)-((R)-5,5-Dimethylpyrrolidin-2-yl) (5-fluoropyridin-3-yl)methanol] | − (less than 25%) | − (less than 25%) |  | 
7 | CC1(C)CC[C@H]([C@H](O)c2cncc(O)c2)N1 [Example 7] | ++ (between 75 and 50%) | − (less than 25%) |  | 
8 | CC1(C)CC[C@H]([C@@H](O)c2cncc(O)c2)N1 [Example 8, 5-((S)-((R)-5,5-dimethylpyrrolidin-2-yl)(hydroxy)methyl)pyridin-3-ol] | + (between 50 and 25%) | − (less than 25%) |  | 
9 | CC1(C)C[C@H]([C@H](O)c2cncc(F)c2)N1 [Example 9, (R)-((R)-4,4-Dimethylazetidin-2-yl)(5-fluoropyridine-3-yl)methanol dihydrochloride] |  |  | +++ (more than 75% of that of isoproterenol) | − (less than 25%)
10 | CC1(C)C[C@@H]([C@H](O)c2cncc(F)c2)N1 [Example 10, (R)-((S)-4,4-Dimethylazetidin-2-yl)(5-fluoropyridine-3-yl)methanol dihydrochloride] |  |  | + (between 50 and 25%) | − (less than 25%)
11 | CC1(C)C[C@@H]([C@@H](O)c2cncc(F)c2)N1 [Example 11, (S)-((S)-4,4-Dimethylazetidin-2-yl) (5-fluoropyridine-3-yl) methanol dihydrochloride] |  |  | + (between 50 and 25%) | − (less than 25%)
12 | CC1(C)C[C@H]([C@@H](O)c2cncc(F)c2)N1 [Example 12, (S)-((R)-4,4-Dimethylazetidin-2-yl)(5-fluoropyridin-3-yl)methanol dihydrochloride] |  |  | + (between 50 and 25%) | − (less than 25%)
13 | CCC[C@@H]1CCCC[C@H]([C@H](O)c2cncc(F)c2)N1 [Example 13, (R)-(5-Fluoropyridin-3-yl)((2R,7R)-7-propylazepan-2-yl)methanol] |  |  | − (less than 25%) | − (less than 25%)
14 | CCC[C@@H]1CCCC[C@H]([C@@H](O)c2cncc(F)c2)N1 [Example 14, (S)-(5-Fluoropyridin-3-yl)((2R,7R)-7-propylazepan-2-yl)methanol] |  |  | − (less than 25%) | − (less than 25%)
15 | CCC[C@H]1CCCC[C@@H]([C@H](O)c2cncc(F)c2)N1 [Example 15, (R)-(5-Fluoropyridin-3-yl)(S,7S)-7-propylazepan-2-yl)methanol dihydrochloride] |  |  | ++ (between 75 and 50%) | 
16 | CCC[C@H]1CCCC[C@@H]([C@@H](O)c2cncc(F)c2)N1 [Example 16] |  |  | + (between 50 and 25%) | 
